Data published in paper PMC12084297, “Cytoplasmic connexin43-microtubule interactions promote glioblastoma stem-like cell maintenance and tumorigenicity” (Cell Death & Disease, 2025).
pEC50: −log10 of the molar value.

Columns and labels:
α-tubulin = test: Cellular thermal shift assay (CETSA), α-tubulin target engagement; assay type: binding, human; details: fresh VTC-037 GSC lysates, 3-fold dilutions 222.2-2.7 nM, 1 h, heat challenge 57 °C (Tagg(75)) 20 min, immunoblot, normalized to DMSO control
Protocol: (§1) For an initial determination of the melting profile of α- and β- tubulin, fresh lysates of GSCs prepared in non-denaturing buffer were dispensed into 96-well PCR plate in stem cell medium (approximately 10,000 cells/well/50 µl), and then subjected to temperature gradient (37–65 °C) for 20 min. Subsequently, centrifugation was performed at 14,000 rpm to sediment the unstable protein content. Supernatant was collected and SDS-PAGE gel was run, and immunodetection was performed to detect α- and β- tubulin using specific primary antibodies described above. A rabbit antibody against β-actin (Cell Signaling Technology; 4970) was used as negative control. Band intensities were quantified on LI-COR C-DiGit Blot Scanner, and subsequently Tagg(50) and Tagg(75) values were calculated for α- and β- tubulin. In a subsequent run, fresh lysates of GSCs were treated at various doses with 3-fold dilutions (222.2, 74.0, 24.7, 8.2 and 2.7 nM) of peptides JM2 and JM2-scrambled, together with DMSO as control, for 1 h. Samples were then subjected to heat challenge at 57 °C for 20 min, and unstable protein was removed by centrifugation step. Following an immunoblotting step, band intensities of the stable tubulin was quantified, and normalized to DMSO control. EC50 values of engagement for both peptide with α- and β- tubulin were subsequently calculated.

β-actin = biological target: T1, β-actin (Homo sapiens, UniProt P60709); test: Cellular thermal shift assay (CETSA), actin negative control; assay type: binding; details: VTC-037 GSC lysates, 57 °C, β-actin as negative control
T1 construct: fresh lysates of GSCs prepared in non-denaturing buffer; endogenous in cells; host or cells: VTC-037 patient-derived glioblastoma stem-like cells (lysate)
Protocol: as §1

VTC-034 GSCs = test: Caspase 3/7 activity, VTC-034 GSCs; assay type: cell-based, human; details: VTC-034 adherent GSCs, 10, 50 or 100 μM, 48 h, Caspase-Glo 3/7
Protocol: Cells were plated in 96-well plates (2000–5000 cells per well) and treated the following day with TMZ (10, 50, or 100 μM), antennapedia, JM2-scrambled, or JM2 (10, 50, or 100 μM). After 4 days, cell viability was monitored following addition of MTS reagent (Promega) according to manufacturer’s instructions. The absorbance at 490 nm was measured using a SpectraMax i3 or iD3 microplate reader (Molecular Devices). For the caspase 3/7 activity assay, cells were plated in 96-well plates (2000 cells per well) and treated with TMZ or peptides as described above. The activity of caspase 3/7 was measured after 48 h using the Caspase-Glo® 3/7 assay (Promega) following the manufacturer’s instructions. Fold change of caspase 3/7 activity was defined as the ratio of caspase 3/7 luminescence in treated cells compared to controls.

LN229/GSC tumor = test: TUNEL and H&E of LN229/GSC-derived tumor sections; assay type: in vivo, mouse (BALB/c nude), human LN229/GSC cells; details: LN229/GSC tumors, 300 µM intratumorally every other day, after 33 days
Protocol: (§2) Tumors were harvested, snap-frozen in Tissue-Tek® O.C.T. compound (Sakura), and stored at −80 °C until sectioning. […] sections were cut using a Leica CM1850 UV cryostat, placed onto Superfrost Plus^TM slides (Fisher Scientific) and fixed in −20 °C acetone for 5 minutes before air drying. Slides were stored at −80 °C prior to labeling. Tumors sections were then rehydrated in PBS for 5 min, permeabilized in 0.1% Triton X-100 in PBS for 1 h at room temperature, and washed four times with PBS (2 x quick, 2 × 5 min) prior to incubating with streptavidin conjugated to Alexa Fluor 647 (Thermo Fisher) diluted in high-salt buffer (0.5 M NaCl, 10 mM Hepes) for 30 min at room temperature. Tumor sections were then washed four times with high-salt buffer (2 x quick, 2 × 10 min), and twice with PBS (2 × 5 min) before using One-step TUNEL In Situ Apoptosis kit (Green Elab Fluor® 488; Elabscience), according to manufacturer’s instructions. Tumor sections were then washed in PBS (3 × 5 min), incubated with DAPI (Thermo Fisher) in PBS for 5 min, and washed again with PBS (4 × 5 min) before the slides were mounted using Prolong Gold Antifade (Thermo Fisher). GBM22-derived tumor sections were analyzed using fluorescence confocal microscopy on a Nikon NIE upright confocal microscope, while LN229/GSC-derived tumor sections were observed using LED illumination microscopy on a Revolve microscope. For hematoxylin and eosin (H&E) staining, tumor sections were stained using a Histo-Tek® SL Slide Stainer (Sakura), and observed using phase contrast microscopy on a Revolve microscope. Investigators were blinded for all image acquisition experiments.

PDX GBM22 tumor = test: TUNEL and H&E of GBM22-derived tumor sections; assay type: in vivo, mouse (athymic nude), human GBM22 cells; details: GBM22 tumors, 300 μM intratumorally every day for 14 days, harvested after 16 days
Protocol: as §2

How did the pEC50 (α-tubulin) turn out when “GSDVFKRKFVDRKVG [JM2-scrambled, reference compound]” was run?
The pEC50 was under 6.70.

And the “EC50 target engagement, actin (negative control)” value (β-actin)?
Its value is “no EC50 was detected”.

What about the “Apoptosis induction (caspase 3/7 activity)” value (VTC-034 GSCs) of the same sequence?
The value was “inefficient in inducing apoptosis”.

And the “Cell death in tumor sections (TUNEL)” value (LN229/GSC tumor)?
Its value is “no significant cell death was observed”.

And the “Cell death in tumor sections (TUNEL)” value (PDX GBM22 tumor)?
Its value is “no significant correlation was observed”.

What does the source list for VFFKGVKDRVKGRSD [JM2]?
pEC50 (α-tubulin): 8.08; EC50 target engagement, actin (negative control) (β-actin): no EC50 was detected; Apoptosis induction (caspase 3/7 activity) (VTC-034 GSCs): increased caspase 3/7 activity in these cells in a dose-dependent manner; Cell death in tumor sections (H&E) (LN229/GSC tumor): further confirmed by H&E staining; Cell death in tumor sections (TUNEL) (LN229/GSC tumor): increased LN229-derived GSC death that positively correlated with the presence of JM2 within the tumors; Cell death in tumor sections (H&E) (PDX GBM22 tumor): Increased cell death within JM2-treated tumors was further confirmed; Cell death in tumor sections (TUNEL) (PDX GBM22 tumor): Positive JM2 signal within the tumors correlated with an increase in cell death
